Measurements: publication PMC4168902 (2014)

What was measured:
[1] = system: poly A–poly U (poly rA–poly rU) (RNA, polymer) A/U; test: UV–vis titration, Scatchard fit; details: Na+ (sodium cacodylate, I = 0.05 M); sodium cacodylate pH 7.0, 25 °C; polynucleotide as nucleobases/phosphates; per base
[2] = system: poly dA–poly dT (DNA, polymer) A/T; test: UV–vis titration, Scatchard fit; details: Na+ (sodium cacodylate, I = 0.05 M); sodium cacodylate pH 7.0, 25 °C; polynucleotide as nucleobases/phosphates; per base
[3] = system: poly dG–poly dC (DNA, polymer) G/C; test: UV–vis titration, Scatchard fit; details: Na+ (sodium cacodylate, I = 0.05 M); sodium cacodylate pH 7.0, 25 °C; polynucleotide as nucleobases/phosphates; per base
[4] = system: poly A–poly U (poly rA–poly rU) (RNA, polymer) A/U; test: UV thermal melting at 260 nm; details: Na+ (sodium cacodylate, I = 0.05 M); sodium cacodylate pH 7.0; r = [compound]/[polynucleotide] = 0.3; per base
[5] = system: poly dA–poly dT (DNA, polymer) A/T; test: UV thermal melting at 260 nm; details: Na+ (sodium cacodylate, I = 0.05 M); sodium cacodylate pH 7.0; r = [compound]/[polynucleotide] = 0.3; per base
[6] = system: poly dAdT–poly dAdT (DNA, polymer) AT; test: UV thermal melting at 260 nm; details: Na+ (sodium cacodylate, I = 0.05 M); sodium cacodylate pH 7.0; r = [compound]/[polynucleotide] = 0.3; per base
[7] = system: poly dAdT–poly dAdT (DNA, polymer) AT; test: UV–vis titration, Scatchard fit; details: Na+ (sodium cacodylate, I = 0.05 M); sodium cacodylate pH 7.0, 25 °C; polynucleotide as nucleobases/phosphates; per base

Row | log Ks [1] | log Ks [2] | log Ks [3] | ΔTm [4] [°C] | ΔTm [5] [°C] | ΔTm [6] [°C] | log Ks [7] | Structure (SMILES)
1 | 6.6 | 5.4 | 5.8 |  |  |  |  | Nc1ncnc2c1ncn2CCCCCOc1ccccc1C(=O)C1=CNc2ccccc2N=CC(C(=O)c2ccccc2OCCCCC[n+]2ccccc2)=CNc2ccccc2N=C1
2 | 5.8 | 5.9 | 5.7 | 0 | 0 | < 2 | 5.5 | C[N+](C)(C)CCCOc1ccccc1C(=O)C1=CNc2ccccc2N=CC(C(=O)c2ccccc2OCCCn2cnc3c(N)ncnc32)=CNc2ccccc2N=C1
3 | 5.7 | 5.0 | 5.6 | 0 | 0 | 0 |  | Nc1ncnc2c1ncn2CCCCCCOc1ccccc1C(=O)C1=CNc2ccccc2N=CC(C(=O)c2ccccc2OCCCCCC[n+]2ccccc2)=CNc2ccccc2N=C1
4 |  |  |  | 0 | 0 | 0 |  | CCCCCCOc1ccccc1C(=O)C1=CNc2ccccc2N=CC(C(=O)c2ccccc2OCCC[n+]2ccccc2)=CNc2ccccc2N=C1
5 | 6.0 | 6.2 | 5.5 | 0.5 | 0.7 | < 3 | 6.1 | Nc1ncnc2c1ncn2CCCOc1ccccc1C(=O)C1=CNc2ccccc2N=CC(C(=O)c2ccccc2OCCC[n+]2ccccc2)=CNc2ccccc2N=C1
